The text below walks through data of patent publication US4576956A, “Iodo propargylaminoisoxazoles as fungicides” (Shionogi & Co., Ltd., priority 1982, dated 1986).

The test system of assay [1] is Trichophyton asteroides. Put plainly: Test A-1 Anti-fungal Activity (MIC), microwell dilution. The format is cell-based. The conditions noted are these: T. asteroides, in vitro, 1×10^5 cells/ml. The procedure:
(§1) Test A-1 Anti-fungal Activity (MIC)
The following results (Table 1) were obtained in an anti-fungal activity test in vitro against Aspergillus fumigatus, Candida albicans M-9 and Trichophyton asteroides. The concentration of the test cells was 1×10^5 cells/ml and the activity was measured by a microwell dilution method. The structure of the test compounds is referred to in the Examples.

The subject of assay [2] is Candida albicans M-9. Described as above. The format is cell-based. The conditions noted are these: M9, C. albicans M-9, in vitro, 1×10^5 cells/ml. The procedure: as §1
(§2) The concentration of the test cells was 1×10^5 cells/ml and the activity was measured by a microwell dilution method. The structure of the test compounds is referred to in the Examples.

Assay [3] concerns Aspergillus fumigatus. Described as above. The format is cell-based. The conditions noted are these: in vitro, 1×10^5 cells/ml. The procedure: as §1, §2
The test system of assay [4] is Colletotrichum lagenarium. Put plainly: Test B-4 Control Test to Anthracnose of Cucumber. It counts as in vivo. The conditions noted are these: 500 ppm, 3 + 3 days. The procedure: Test B-4 Control Test to Anthracnose of Cucumber Each cucumber seedling was sprayed with 2.5 ml of a test solution in the same manner as in Test B-1. After the spraying, the seedlings were kept at 25°-26° C. for a day and were inoculated with five filter-paper disks of 6 mm in diameter saturated with a conidium suspension of Colletotrichum lagenarium at a concentration of 1×10^6 conidia/ml. The treated seedlings were kept in a greenhouse (25° C.) for 3 days and further kept at below 25° C. for 3 days. Standard of Evaluation The same as noted in Test B-3.

Assay [5] has as its system Sclerotinia sclerotiorum. Put plainly: Test B-2 Control Test to Sclerotinia Rot of Cucumber. As to conditions: 48 h, 2 days, read-out: Percent Disease Control. It counts as in vivo. Here is the method:
Test B-2 Control Test to Sclerotinia Rot of Cucumber
Cucumber seedlings were sprayed with 2.5 ml of a test solution in the same manner as in Test B-1. Afterthe spraying, the seedlings were kept at 25°-26° C. for a day and three disks of 4 mm in diameter containing mycelia of Sclerotinia sclerotiorum were put on a primary leaf and then 10 μl of PD broth were dropped on the disks. The treated seedlings were kept ina greenhouse (20° C.) for 2 days and then the diameters of the disease spots were measured by a pair of slide callipers. [formula]

Assay [6] relates to Candida albicans. Put plainly: Test A-2 Anti-fungal Activity (MCC). As to conditions: 48 h, read-out: MCC (Minimal Cidal Concentration).
Method: (§3) Some MCC (Minimal Cidal Concentration) values (Table 1) were obtained against Candida albicans and Trichophyton asteroides by the following method. After the MIC value was obtained by the microwell method, a loopful amount was picked up from the medium in which no growth of the fungus was observed, inoculated into a Subrouraud's glucose agar medium and incubated at 28° C. for 2 days in the case of C. albicans and for 7 days in the case of T. asteroides.
For assay [7], the system named is Trichophyton asteroides. Nature of the assay: Test A-2 Anti-fungal Activity (MCC). The conditions noted are these: 168 h, read-out: MCC (Minimal Cidal Concentration).
Method: as §3
Assay [8] concerns Sphaerotheca fuliginea. Nature of the assay: Test B-5 Control Test to Powdery Mildew of Cucumber. The conditions noted are these: 500 ppm, 2 weeks. It counts as in vivo. Here is the method:
Test B-5 Control Test to Powdery Mildew of Cucumber
Each cucumber seedling was sprayed with 2.5 ml of a test solution. The seedlings were kept at 25°-26° C. for 1 day after the spraying and then sprayed with a conidium (1×10^5 conidia/ml) of Sphaerotheca fuliginea in a 100 ppm spreader solution (containing 20% polyoxyethylene glycol alkyl phenol ether and 12% lignin sulfonate) at a rate of 25 ml/20 cups.
The seedlings were kept in a greenhouse (25° C.) for 2 weeks and then observed.
Standard of Evaluation [formula]
The percent disease control was calculated in the same manner as in Test B-1.

The subject of assay [9] is Pseudoperonospora cubensis. Nature of the assay: Test B-3 Control Test to Downy Mildew of Cucumber. It counts as in vivo. The conditions noted are these: 500 ppm, 7 days. Here is the method: Test B-3 Control Test to Downy Mildew of Cucumber
Each cucumber seedling was sprayed with 2.5 ml of a test solution in the same manner as in Test B-1. After the spraying, the seedlings were kept at 25°-26° C. for a day and a zoosporangium suspension or Pseudoperonospora cubensis was inoculated at a rate of five spots per leaf on a primary leaf. The treated seedlings were kept in a greenhouse for 7 days and then observed.
(2) Slight disease at the inoculation spot . . . X5
(3) A disease spot in the same size as the inoculation spot (without spreading) . . . x10
(4) A disease spot larger than the inoculation spot . . . x20
Disease degree and percent disease control were calculated in the same manner as in Test B-1.

For assay [10], the system named is Botrytis cinerea. Nature of the assay: Test B-1 Control Test of Botrytis Rot (Gray Mold) of Cucumber. The format is in vivo. As to conditions: 500 ppm, 3 days. The procedure: Test B-1 Control Test of Botrytis Rot (Gray Mold) of Cucumber Seedlings of Cucumber (Cultivar: Matsukaze) were planted and grown in soil in vinyl-chloride cups of 9 cm in diameter in a greenhouse. […] The treated cucumbers were kept for 3 days in a greenhouse (20° C.) and then disease degrees were counted. Standard of Evaluation […] (2) A slight soaked lesion on the reverse of the test leaf . . . × 5 (3) A slight fade of the leaf . . . × 10 (4) The inoculated part was faded and the fading expanded erosively . . . × 20 [formula]

The test system of assay [11] is Mycoplasma hyopneumonia. Nature of the assay: growth inhibition of a swine enzootic pneumonia-causative bacteria. It counts as cell-based. As to conditions: one range for the listed compounds, read-out: concentration inhibiting the growth.
In assay [12] the test system is Pyricularia oryzae. It counts as in vivo. As to conditions: 500 ppm; rice plant blast, 24 hours + 7 days.

In brackets after ≈: the same amount, converted by molar mass.

In the case of `CN(CC#CI)c1cc(-c2ccco2)no1` [Comp. 10], the MIC in assay [1] stood at 0.8 µg/mL (≈ 2.44 µM); in assay [2] it was 0.8 µg/mL (≈ 2.44 µM); in [3] it was 1.6 µg/mL (≈ 4.88 µM).

Take `CCN(CC#CI)c1onc(C)c1C` [Comp. 21]: the MIC in assay [1], in assay [2] and in assay [3] was 1.6 µg/mL (≈ 5.26 µM) each time.

As to `CC(C)c1cc(N(C)CC#CI)on1` [Comp. 6], in [4], the “Percent Disease Control” value turned out to be 100%. For the same molecule, the MIC turned out to be 1.6 µg/mL (≈ 5.26 µM) in assay [1], 0.8 µg/mL (≈ 2.63 µM) in assay [2] and 1.6 µg/mL (≈ 5.26 µM) in assay [3]. In addition, in assay [5], the pest or weed control at 500 ppm was 100%. Also, the MFC in assay [6] turned out to be 25 µg/mL (≈ 82.2 µM); in [7], 3.1 µg/mL (≈ 10.2 µM).

Turning to `Cc1cc(N(C)CC#CI)on1` [Comp. 3], the MIC in assay [1] came out at 1.6 µg/mL (≈ 5.8 µM); in assay [2], 0.4 µg/mL (≈ 1.45 µM); in assay [3] it was 0.8 µg/mL (≈ 2.9 µM).

As to `CC(C)c1noc(N(C)CC#CI)c1Cl` [Comp. 26], the “Percent Disease Control” value in [4], in assay [8] and in assay [9] was 100% each time. The results for the MIC in assay [1], in [2] and in [3] were 1.6 µg/mL (≈ 4.73 µM), 6.3 µg/mL (≈ 18.6 µM) and 50 µg/mL (≈ 148 µM), respectively.

With `CCc1noc(N(C)CC#CI)c1Cl` [Comp. 1, 3-ethyl-4-chloro-5-(N-methyl-N-3-iodo-2-propynyl)-aminoisoxazole], the “Percent Disease Control” value in assay [10], in [4], in [8] and in assay [9] was 100% throughout. Further, the MIC in [1] came to 0.8 µg/mL (≈ 2.46 µM); in assay [2], 3.1 µg/mL (≈ 9.55 µM); in assay [3], 6.3 µg/mL (≈ 19.4 µM). Moreover, in assay [5], the pest or weed control at 500 ppm was determined as 100%.

Turning to `CN(CC#CI)c1cc(C2CCCCC2)no1` [Comp. 9], the MIC in assay [11] is 3.13 to 12.5 µg/mL (≈ 9.09 to 36.3 µM). Besides, in assay [9], the “Percent Disease Control” value worked out at 100%.

Turning to `CCN(CC#CI)c1cc(C)no1` [Comp. 4], the figures for the MIC in assay [1], in [2] and in [3] were 1.6 µg/mL (≈ 5.52 µM), 0.8 µg/mL (≈ 2.76 µM) and 1.6 µg/mL (≈ 5.52 µM), respectively. In addition, the MFC is 25 µg/mL (≈ 86.2 µM) in assay [6] and 3.1 µg/mL (≈ 10.7 µM) in assay [7].

Regarding `CN(CC#CI)c1cc(C2CC2)no1` [Comp. 8], the results for the MIC in [1], in assay [2] and in assay [3] were 3.1 µg/mL (≈ 10.3 µM), 0.8 µg/mL (≈ 2.65 µM) and 1.6 µg/mL (≈ 5.3 µM), respectively.

Regarding `Cc1c(N(C)CC#CI)noc1-c1ccccc1` [compound 36], the “Percent Disease Control” value in assay [12] is reported as 90%.

On to `Clc1ccccc1C(c1ccccc1)(c1ccccc1)n1ccnc1` [Ref. Comp., Clotrimazole, reference compound], for which the MIC in assay [1] is 0.2 µg/mL (≈ 0.58 µM); in [2], 6.3 µg/mL (≈ 18.3 µM); in assay [3], 12.5 µg/mL (≈ 36.2 µM). The MFC in assay [6] was over 100 µg/mL; in assay [7], 6.3 µg/mL (≈ 18.3 µM).
